Test results from ChEMBL document CHEMBL1201862, “PubChem BioAssay data set” (2004).
Activity calls are given as the source filed them.

Tests used:
[1] = molecular target: Ras and Rab interactor 1/Tyrosine-protein kinase ABL1 (Homo sapiens, UniProt P00519+Q13671); type: functional;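 note: biochemical TR-FRET dose-response test measuring inhibition of binding between Rin1 and Abl proteins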
[2] = molecular target: Cytochrome P450 2D6 (Homo sapiens, UniProt P10635);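 note: CYP2D6 member of a cytochrome P450 panel assay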
Chain of Cytochrome P450 2D6 (P10635 whole entry): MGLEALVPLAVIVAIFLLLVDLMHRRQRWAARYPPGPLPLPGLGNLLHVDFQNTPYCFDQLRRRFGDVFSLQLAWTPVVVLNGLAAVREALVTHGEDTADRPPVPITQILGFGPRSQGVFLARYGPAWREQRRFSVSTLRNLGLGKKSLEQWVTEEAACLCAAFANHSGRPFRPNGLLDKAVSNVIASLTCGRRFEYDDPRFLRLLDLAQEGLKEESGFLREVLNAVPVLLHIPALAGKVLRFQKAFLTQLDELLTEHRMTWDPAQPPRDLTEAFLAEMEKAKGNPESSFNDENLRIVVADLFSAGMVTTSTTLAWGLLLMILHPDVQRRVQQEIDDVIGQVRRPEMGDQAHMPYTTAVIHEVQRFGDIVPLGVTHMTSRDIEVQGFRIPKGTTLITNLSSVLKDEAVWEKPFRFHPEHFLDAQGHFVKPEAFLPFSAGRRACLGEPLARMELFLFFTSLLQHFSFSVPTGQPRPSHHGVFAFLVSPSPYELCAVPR

[3] = molecular target: Cytochrome P450 3A4 (Homo sapiens, UniProt P08684);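 note: CYP3A4 tested as one member of a cytochrome P450 panel screen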
Chain of Cytochrome P450 3A4 (P08684 whole entry): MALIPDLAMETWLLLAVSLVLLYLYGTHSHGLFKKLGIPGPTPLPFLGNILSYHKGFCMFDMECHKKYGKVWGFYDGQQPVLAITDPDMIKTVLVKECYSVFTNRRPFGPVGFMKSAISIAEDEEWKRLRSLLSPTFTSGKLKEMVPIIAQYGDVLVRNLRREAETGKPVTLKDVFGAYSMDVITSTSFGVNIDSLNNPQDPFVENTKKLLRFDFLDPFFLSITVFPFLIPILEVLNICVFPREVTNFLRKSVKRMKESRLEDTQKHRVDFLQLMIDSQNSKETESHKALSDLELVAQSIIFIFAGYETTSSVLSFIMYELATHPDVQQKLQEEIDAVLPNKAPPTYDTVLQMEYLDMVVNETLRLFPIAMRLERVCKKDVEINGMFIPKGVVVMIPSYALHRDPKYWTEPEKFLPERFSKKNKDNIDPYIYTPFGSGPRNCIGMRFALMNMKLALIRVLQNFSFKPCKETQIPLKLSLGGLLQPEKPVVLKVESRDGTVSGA

[4] = system: HEK293; test: NOD1 signaling inhibitors, primary screen, cell-based, luminescence, uHTS (AID 1578); type: functional; details: Homo sapiens
[5] = system: HEK293; test: cells; type: functional, cell-based; details: Homo sapiens
[6] = system: HEK293; test: cells; type: functional, cell-based; details: Homo sapiens; remark: listed apart in the source
[7] = system: HEK293; test: NOD2 signaling inhibitors in MDP-stimulated cells, cell-based, uHTS, luminescence (AID 2001); type: functional; details: Homo sapiens
[8] = Shn3 3'UTR reporter inhibitors, dose response, cell-based, Clone20 osteoblasts, firefly luciferase, cherry-picked (AID 624132); type: functional;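 note: firefly luciferase luminescence from reporter carrying the Shn3 3'UTR in osteoblasts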
[9] = HepG2 cell cytotoxicity, dose response, cytotoxicity control for Shn3 inhibitor project, CellTiter-Glo, cherry-picked (AID 624134); type: functional, cell-based
[10] = control 3'UTR Renilla luciferase suppression, dose response, counter-screen for Shn3 inhibitor project, cell-based, Clone20-Shn3RL, cherry-picked (AID 624133); type: functional
[11] = molecular target: T1, COUP transcription factor 2 (Homo sapiens, UniProt P24468); test: Luminescence-based cell-based high throughput dose response assay to identify inhibitors of COUP-TFII (NR2F2).; type: functional;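 note: HEK293 cells transiently cotransfected with COUP-TFII expression vector and reporter; luciferase reporter luminescence driven by COUP-TFII from the pX2-168 reporter plasmid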
T1 sequence (P24468 whole entry): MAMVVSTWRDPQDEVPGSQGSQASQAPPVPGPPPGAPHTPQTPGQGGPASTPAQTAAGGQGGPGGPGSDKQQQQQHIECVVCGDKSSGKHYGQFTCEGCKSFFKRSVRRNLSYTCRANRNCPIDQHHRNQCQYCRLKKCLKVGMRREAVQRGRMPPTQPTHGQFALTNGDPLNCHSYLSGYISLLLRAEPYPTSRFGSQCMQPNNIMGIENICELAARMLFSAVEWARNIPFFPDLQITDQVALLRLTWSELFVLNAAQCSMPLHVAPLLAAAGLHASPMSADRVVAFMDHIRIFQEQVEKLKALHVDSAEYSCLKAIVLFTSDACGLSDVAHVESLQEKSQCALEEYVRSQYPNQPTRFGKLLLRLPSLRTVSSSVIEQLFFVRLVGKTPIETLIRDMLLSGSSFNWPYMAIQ

[12] = system: P388/ADR; test: cells; type: functional; details: Mus musculus
[13] = system: SN12K1; test: cells; type: functional; details: Homo sapiens
[14] = system: P388; test: cells; type: functional; details: Mus musculus
[15] = molecular target: T2, Caspase-3 (Homo sapiens, UniProt P42574); type: functional;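 note: Dose-response selectivity test against caspase-3 for candidate inhibitors of sentrin-specific proteases (SENPs)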
T2 sequence (P42574 whole entry): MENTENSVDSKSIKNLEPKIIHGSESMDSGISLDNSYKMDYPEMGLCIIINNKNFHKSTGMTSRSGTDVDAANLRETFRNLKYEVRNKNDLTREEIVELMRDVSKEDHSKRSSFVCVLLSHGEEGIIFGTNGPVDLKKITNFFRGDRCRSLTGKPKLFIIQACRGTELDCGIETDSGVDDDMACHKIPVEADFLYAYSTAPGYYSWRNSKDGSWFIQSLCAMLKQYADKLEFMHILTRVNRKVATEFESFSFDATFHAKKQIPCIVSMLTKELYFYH

[16] = molecular target: T3, Sentrin-specific protease 7 (Homo sapiens, UniProt Q9BQF6); type: functional;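 note: Luminescence-based dose-response confirmation of ultra-high-throughput screening hits, measuring inhibition of SENP7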
T3 sequence (Q9BQF6 whole entry): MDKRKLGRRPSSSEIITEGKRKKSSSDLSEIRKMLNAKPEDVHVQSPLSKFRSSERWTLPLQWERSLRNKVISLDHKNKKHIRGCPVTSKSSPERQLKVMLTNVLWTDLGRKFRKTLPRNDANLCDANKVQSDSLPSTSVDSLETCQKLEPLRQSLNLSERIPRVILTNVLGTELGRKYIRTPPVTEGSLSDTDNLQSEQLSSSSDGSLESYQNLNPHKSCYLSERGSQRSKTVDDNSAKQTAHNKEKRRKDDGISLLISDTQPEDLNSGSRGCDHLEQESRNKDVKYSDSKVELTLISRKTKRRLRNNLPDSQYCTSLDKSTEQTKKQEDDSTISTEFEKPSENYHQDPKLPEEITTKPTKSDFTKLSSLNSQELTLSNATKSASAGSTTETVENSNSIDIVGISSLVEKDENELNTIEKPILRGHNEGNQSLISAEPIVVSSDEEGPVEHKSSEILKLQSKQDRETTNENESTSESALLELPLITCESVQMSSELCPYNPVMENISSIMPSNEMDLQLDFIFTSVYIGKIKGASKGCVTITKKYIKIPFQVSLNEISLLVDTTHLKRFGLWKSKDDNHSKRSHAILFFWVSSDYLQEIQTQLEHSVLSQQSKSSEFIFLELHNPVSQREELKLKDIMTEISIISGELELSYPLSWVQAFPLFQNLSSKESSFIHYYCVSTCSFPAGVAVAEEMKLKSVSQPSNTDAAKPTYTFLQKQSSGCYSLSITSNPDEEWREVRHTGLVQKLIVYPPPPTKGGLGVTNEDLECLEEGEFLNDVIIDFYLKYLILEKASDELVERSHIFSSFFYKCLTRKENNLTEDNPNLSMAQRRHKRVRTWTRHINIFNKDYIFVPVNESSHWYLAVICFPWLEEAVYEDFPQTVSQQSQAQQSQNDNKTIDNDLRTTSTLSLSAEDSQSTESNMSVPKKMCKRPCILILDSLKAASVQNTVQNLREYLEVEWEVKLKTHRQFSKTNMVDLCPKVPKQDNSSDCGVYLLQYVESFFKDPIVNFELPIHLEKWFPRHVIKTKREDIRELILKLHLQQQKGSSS

[17] = molecular target: T4, Sentrin-specific protease 6 (Homo sapiens, UniProt Q9GZR1); type: functional;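 note: Luminescence-based dose-response confirmatory assay of SENP6 inhibition, following up an ultra-high-throughput screen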
T4 sequence (Q9GZR1 whole entry): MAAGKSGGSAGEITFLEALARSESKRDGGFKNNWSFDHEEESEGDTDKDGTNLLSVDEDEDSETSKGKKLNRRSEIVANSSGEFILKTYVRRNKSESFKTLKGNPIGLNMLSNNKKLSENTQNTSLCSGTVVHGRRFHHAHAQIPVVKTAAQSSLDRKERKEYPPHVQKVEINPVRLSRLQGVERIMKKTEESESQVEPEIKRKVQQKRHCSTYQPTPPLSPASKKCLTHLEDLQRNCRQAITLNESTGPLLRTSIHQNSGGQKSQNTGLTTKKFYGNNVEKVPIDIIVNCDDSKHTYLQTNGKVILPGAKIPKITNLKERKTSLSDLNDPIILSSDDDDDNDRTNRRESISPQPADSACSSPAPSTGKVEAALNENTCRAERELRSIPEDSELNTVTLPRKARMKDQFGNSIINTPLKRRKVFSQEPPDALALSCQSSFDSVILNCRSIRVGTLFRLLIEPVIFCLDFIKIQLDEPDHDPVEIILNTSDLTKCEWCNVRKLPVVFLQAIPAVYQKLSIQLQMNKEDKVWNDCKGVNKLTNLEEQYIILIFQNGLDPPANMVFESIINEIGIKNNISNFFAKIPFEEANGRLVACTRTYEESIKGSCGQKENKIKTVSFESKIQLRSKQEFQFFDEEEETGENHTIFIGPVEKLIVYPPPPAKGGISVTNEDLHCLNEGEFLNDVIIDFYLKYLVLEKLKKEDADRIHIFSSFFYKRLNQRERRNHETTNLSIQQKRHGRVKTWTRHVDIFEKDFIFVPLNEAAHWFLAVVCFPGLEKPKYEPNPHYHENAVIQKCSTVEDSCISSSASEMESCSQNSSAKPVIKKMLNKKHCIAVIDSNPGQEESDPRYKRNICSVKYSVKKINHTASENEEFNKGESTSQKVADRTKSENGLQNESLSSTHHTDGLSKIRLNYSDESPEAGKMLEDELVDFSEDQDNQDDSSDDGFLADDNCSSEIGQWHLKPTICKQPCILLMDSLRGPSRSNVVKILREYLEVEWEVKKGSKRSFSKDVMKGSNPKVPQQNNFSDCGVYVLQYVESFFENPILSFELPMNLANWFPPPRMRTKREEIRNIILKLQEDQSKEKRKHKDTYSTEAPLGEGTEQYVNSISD

[18] = molecular target: T5, Sentrin-specific protease 8 (Homo sapiens, UniProt Q96LD8); type: functional;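 note: luminescence read-out of SENP8 inhibition, dose-response confirmation following an ultra-high-throughput screen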
T5 sequence (Q96LD8 whole entry): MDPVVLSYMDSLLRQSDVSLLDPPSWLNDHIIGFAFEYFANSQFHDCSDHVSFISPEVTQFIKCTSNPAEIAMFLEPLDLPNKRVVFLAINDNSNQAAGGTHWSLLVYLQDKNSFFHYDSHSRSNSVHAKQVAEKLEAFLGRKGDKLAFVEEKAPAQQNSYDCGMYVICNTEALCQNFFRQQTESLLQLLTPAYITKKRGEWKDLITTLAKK

[19] = molecular target: Peroxisome proliferator-activated receptor gamma/Nuclear receptor coactivator 1 (Homo sapiens, UniProt P37231); test: (§1) TR-FRET dose response biochemical High Throughput Screening assay for agonists of the steroid receptor coactivator 1 (SRC-1) recruitment by the peroxisome proliferator-activated receptor gamma (PPAR gamma): non-selective agonists. [Related pubchem assays (depositor defined):AID1300, AID1808, AID504735, AID631]; type: protein assay
Chain of Peroxisome proliferator-activated receptor gamma/Nuclear receptor coactivator 1 (P37231 whole entry): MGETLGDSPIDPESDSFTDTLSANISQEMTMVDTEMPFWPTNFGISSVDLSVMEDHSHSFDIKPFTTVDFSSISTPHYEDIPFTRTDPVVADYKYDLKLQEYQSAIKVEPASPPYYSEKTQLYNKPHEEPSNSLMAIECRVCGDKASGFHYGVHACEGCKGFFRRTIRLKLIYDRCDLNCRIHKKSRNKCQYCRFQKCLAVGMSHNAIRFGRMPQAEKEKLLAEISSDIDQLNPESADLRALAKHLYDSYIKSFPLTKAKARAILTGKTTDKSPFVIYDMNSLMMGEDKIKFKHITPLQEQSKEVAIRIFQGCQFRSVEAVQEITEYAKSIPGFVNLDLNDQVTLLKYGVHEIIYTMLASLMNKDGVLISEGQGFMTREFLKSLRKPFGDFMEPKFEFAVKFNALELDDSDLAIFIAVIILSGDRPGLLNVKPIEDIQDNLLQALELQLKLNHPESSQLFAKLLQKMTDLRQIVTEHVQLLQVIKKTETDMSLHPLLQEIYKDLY
Chain of Peroxisome proliferator-activated receptor gamma/Nuclear receptor coactivator 1 (Q15788 whole entry, further chain): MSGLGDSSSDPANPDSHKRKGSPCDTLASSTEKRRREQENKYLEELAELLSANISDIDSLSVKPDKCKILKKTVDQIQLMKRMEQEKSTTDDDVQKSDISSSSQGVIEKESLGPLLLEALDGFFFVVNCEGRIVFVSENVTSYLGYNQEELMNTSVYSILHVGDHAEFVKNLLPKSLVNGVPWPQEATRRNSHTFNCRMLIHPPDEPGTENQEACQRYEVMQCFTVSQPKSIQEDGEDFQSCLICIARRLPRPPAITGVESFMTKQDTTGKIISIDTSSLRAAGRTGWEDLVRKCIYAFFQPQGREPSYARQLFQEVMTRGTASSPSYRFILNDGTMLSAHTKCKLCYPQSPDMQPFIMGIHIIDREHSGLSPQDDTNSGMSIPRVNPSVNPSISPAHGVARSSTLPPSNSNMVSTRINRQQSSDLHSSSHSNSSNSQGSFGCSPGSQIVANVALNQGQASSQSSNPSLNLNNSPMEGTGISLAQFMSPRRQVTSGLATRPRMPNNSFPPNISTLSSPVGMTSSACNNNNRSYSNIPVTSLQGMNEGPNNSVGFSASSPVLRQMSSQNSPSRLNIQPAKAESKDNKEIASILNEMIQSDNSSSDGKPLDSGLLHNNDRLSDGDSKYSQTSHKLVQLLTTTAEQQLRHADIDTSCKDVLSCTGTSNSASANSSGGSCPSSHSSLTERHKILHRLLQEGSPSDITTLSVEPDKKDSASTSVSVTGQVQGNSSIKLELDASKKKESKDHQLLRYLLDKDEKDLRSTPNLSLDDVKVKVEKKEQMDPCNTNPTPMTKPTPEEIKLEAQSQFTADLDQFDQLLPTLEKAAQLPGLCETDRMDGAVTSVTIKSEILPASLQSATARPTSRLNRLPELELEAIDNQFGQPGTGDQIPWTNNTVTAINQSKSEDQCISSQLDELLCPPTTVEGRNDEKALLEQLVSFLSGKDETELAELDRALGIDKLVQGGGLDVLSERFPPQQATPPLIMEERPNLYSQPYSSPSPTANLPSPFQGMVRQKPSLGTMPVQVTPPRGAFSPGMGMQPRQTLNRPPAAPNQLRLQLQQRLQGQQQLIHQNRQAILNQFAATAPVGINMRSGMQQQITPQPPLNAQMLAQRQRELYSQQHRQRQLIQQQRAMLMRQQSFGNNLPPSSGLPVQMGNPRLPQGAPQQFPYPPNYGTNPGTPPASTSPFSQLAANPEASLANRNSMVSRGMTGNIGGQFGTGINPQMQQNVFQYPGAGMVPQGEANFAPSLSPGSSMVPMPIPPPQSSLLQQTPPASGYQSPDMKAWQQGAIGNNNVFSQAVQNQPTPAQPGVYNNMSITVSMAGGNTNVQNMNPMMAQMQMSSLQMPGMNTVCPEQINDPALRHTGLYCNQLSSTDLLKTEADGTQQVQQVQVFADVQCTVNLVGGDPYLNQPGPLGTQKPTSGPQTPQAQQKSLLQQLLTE

[20] = molecular target: Peroxisome proliferator-activated receptor gamma/Nuclear receptor coactivator 3 (Homo sapiens, UniProt P37231); test: as §1, with “3 (SRC-3)” for “1 (SRC-1)”, “assays: 1301 (Confirmation screen.), 1048 (Primary screen.)]” for “assays (depositor defined):AID1300, AID1808, AID504735, AID631]”; type: functional
[21] = molecular target: Peroxisome proliferator-activated receptor gamma/Nuclear receptor coactivator 2 (Homo sapiens, UniProt P37231); test: TR-FRET dose response biochemical High Throughput Screening assay for agonists of the steroid receptor coactivator 2 (SRC-2) recruitment by the peroxisome proliferator-activated receptor gamma (PPAR gamma): non-selective agonists. [Related pubchem assays: 1297, 1032 ]; type: functional
[22] = cytotoxicity in HPDE-C7 cells, cell-based, fluorescence, HTS (AID 430); type: functional; details: Homo sapiens
[23] = cytotoxicity in KRAS-transformed pancreatic duct cells, primary screen, cell-based, fluorescence, HTS (AID 431); type: functional; details: Homo sapiens;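 note: cell line used: HPDE-C7K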

Chain of Ras and Rab interactor 1/Tyrosine-protein kinase ABL1 (P00519 whole entry): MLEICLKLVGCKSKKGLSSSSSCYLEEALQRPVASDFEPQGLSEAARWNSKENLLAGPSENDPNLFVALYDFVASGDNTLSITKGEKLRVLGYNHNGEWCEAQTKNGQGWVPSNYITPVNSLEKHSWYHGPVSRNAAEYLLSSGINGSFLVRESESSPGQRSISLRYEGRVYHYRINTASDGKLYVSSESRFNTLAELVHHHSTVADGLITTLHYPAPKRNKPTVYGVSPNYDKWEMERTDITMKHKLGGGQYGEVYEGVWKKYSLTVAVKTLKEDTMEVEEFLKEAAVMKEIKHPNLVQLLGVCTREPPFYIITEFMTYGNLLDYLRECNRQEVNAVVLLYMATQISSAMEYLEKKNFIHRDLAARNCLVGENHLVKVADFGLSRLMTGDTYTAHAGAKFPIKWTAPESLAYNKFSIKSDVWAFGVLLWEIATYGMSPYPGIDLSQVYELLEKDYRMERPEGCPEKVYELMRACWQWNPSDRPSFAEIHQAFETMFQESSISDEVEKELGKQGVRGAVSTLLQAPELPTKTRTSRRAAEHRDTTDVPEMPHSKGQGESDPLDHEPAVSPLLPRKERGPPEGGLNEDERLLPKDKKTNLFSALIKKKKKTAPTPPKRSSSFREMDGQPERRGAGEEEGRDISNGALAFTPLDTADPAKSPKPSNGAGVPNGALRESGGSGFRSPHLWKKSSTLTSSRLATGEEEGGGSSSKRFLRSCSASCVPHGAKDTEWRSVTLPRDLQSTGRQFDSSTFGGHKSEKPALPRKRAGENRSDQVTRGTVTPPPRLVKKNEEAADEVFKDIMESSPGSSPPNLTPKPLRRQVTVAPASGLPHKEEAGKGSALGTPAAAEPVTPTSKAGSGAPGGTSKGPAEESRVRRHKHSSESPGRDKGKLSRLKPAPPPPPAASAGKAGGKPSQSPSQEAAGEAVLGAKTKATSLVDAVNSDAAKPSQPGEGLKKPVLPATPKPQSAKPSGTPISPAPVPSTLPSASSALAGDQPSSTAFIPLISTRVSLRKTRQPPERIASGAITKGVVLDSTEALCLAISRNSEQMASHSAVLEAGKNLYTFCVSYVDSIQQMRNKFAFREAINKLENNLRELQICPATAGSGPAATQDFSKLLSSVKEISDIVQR
Chain of Ras and Rab interactor 1/Tyrosine-protein kinase ABL1 (Q13671 whole entry): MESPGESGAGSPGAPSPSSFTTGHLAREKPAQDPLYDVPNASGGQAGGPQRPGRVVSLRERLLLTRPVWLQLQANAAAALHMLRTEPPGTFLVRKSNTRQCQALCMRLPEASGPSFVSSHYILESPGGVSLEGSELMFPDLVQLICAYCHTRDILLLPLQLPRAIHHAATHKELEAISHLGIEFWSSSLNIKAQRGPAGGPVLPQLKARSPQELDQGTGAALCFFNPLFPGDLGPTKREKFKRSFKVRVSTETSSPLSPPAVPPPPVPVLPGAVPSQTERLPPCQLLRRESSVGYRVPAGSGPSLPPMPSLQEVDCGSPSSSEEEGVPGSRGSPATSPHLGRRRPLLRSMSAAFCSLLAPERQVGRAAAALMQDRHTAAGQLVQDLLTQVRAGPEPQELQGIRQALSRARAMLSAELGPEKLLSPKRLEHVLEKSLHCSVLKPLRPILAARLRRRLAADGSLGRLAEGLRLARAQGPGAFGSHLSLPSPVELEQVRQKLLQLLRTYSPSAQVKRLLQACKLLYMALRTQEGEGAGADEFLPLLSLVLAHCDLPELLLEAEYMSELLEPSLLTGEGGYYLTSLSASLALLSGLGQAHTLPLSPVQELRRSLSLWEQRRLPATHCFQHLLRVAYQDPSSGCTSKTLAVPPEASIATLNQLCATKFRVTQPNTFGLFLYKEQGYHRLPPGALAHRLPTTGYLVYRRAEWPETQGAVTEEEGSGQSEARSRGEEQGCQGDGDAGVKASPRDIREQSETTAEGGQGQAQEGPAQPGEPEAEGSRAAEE

With `CC[C@]12c3[nH]c4ccc(Cl)cc4c3CCN1C(=O)[C@@H](CC(=O)NCCCN(C)C)C[C@@H]2C(=O)N1CCN(C(=O)c2ccco2)CC1` the IC50 [1] was 46.8 µM (inactive).

With `CO/N=C(/CNC(=O)c1ccc(Cl)cc1Cl)c1ccc(Cl)cc1` the AC50 [2] was 2 µM (inconclusive) and the AC50 [3] was “inconclusive”.

For `CCN(CC)C(=O)c1oc2ccc(S(=O)(=O)N3CC(C)CC(C)C3)cc2c1C` (stereo unspecified), the EC50 [4] was 2.78 µM (active), the IC50 [5] was 4.79 µM (active) and the IC50 [6] was > 20 µM (inactive). The IC50 [7] was 5.18 µM (active), the AC50 [8] was 1.02 µM (active) and the AC50 [9] was 3.55 µM (active). The AC50 [10] was 6.58 µM (active) and the IC50 [11] was 8.24 µM (active).

For `CC(C)=CC(=O)OC1C2C(C)=CC(O)C(O)C2(C)C2C3(O)OCC24C(CC(=O)OC14)C(C)C3O` (stereo unspecified), the GI50 [12] was 1.97 µM (inactive), the GI50 [13] was 0.0259 µM (active) and the GI50 [14] was 0.0125 µM (active).

With `Nc1cc(S(=O)(=O)O)cc2cc(S(=O)(=O)O)c(/N=N/c3ccc(-c4ccc(/N=N/c5c(S(=O)(=O)O)cc6cc(S(=O)(=O)O)cc(N)c6c5O)cc4)cc3)c(O)c12` the GI50 [13] was > 100 µM (inactive) and the GI50 [14] was > 100 µM (inactive).

In the case of `O=C(O)c1ccc(CSc2nnc(-c3cccnc3)n2-c2ccc(Br)cc2)cc1`, the IC50 [1] is reported as 11.8 µM (inactive).

For `COc1ccc(-c2csc(NC(=O)c3ccco3)n2)cc1`, the IC50 [15] was 31.1 µM (active), the IC50 [16] was 8.46 µM (active) and the IC50 [17] was 28.5 µM (active). The IC50 [18] was 41.3 µM (active).

For `Cn1c(=O)cc(SCC(=O)NCC2CCCO2)c2ccc(Cl)cc21` (stereo unspecified), the EC50 [19] was > 79.4 µM (inactive), the EC50 [20] was > 79.4 µM (not active) and the EC50 [21] was > 26.5 µM (not active).

With `C[N+](=N[N-]c1cccc([N+](=O)[O-])c1)c1ccccc1` the IC50 [15] was 29.7 µM (active), the IC50 [16] was 6.72 µM (active) and the IC50 [17] was 33.7 µM (active). The IC50 [18] was 36 µM (active).

For `Cc1nnc(SCc2nc3ccccc3[nH]2)s1`, the EC50 [22] was > 20 µM (not active), the EC50 [23] was > 20 µM (not active) and the IC50 [1] was 15.2 µM (inactive).
